From patent publication EP1285918A1, “C7 Ester substituted taxanes as antitumor agents” (Florida State University Research Foundation, Inc., priority 2001, dated 2003)

Tested on: HCT116
Assay: In Vitro cytotoxicity measured by the cell colony formation assay
Type: cell-based
Conditions: Homo sapiens, HCT-116; 72 h drug incubation, colonies counted after 7 days; concentration producing 50% inhibition of colony formation; read-out: IN VITRO ID 50 (nm) HCT116
Protocol: In Vitro cytotoxicity measured by the cell colony formation assay
Four hundred cells (HCT116) were plated in 60 mm Petri dishes containing 2.7 mL of medium (modified McCoy's 5a medium containing 10% fetal bovine serum and 100 units/mL penicillin and […] streptomycin). The cells were incubated in a CO2 incubator at 37 °C for 5 h for attachment to the bottom of Petri dishes. The compounds identified in Example 2 were made up fresh in medium at ten times the final concentration, and then 0.3 mL of this stock solution was added to the 2.7 mL of medium in the dish. The cells were then incubated with drugs for 72 h at 37 ° C. At the end of incubation the drug-containing media were decanted, the dishes were rinsed with 4 mL of Hank's Balance Salt Solution (HBSS), 5 mL of fresh medium was added, and the dishes were returned to the incubator for colony formation. The cell colonies were counted using a colony counter after incubation for 7 days. Cell survival was calculated and the values of ID50 (the drug concentration producing 50% inhibition of colony formation) were determined for each tested compound.

CCCC(=O)OC1CC2OCC2(OC(C)=O)C2C(OC(=O)c3ccccc3)C3(O)CC(OC(=O)C(O)C(NC(=O)OC(C)(C)C)c4ccoc4)C(C)=C(C(O)C(=O)C12C)C3(C)C (centres unmarked) [Compound 4394]
IC50: < 1 nM

CCCC(=O)OC1CC2OCC2(OC(C)=O)C2C(OC(=O)c3ccccc3)C3(O)CC(OC(=O)C(O)C(C=C(C)C)NC(=O)OC(C)(C)C)C(C)=C(C(O)C(=O)C12C)C3(C)C (centres unmarked) [Compound 4406]
IC50: < 1 nM

CCCC(=O)O[C@H]1C[C@H]2OC[C@@]2(OC(C)=O)[C@H]2[C@H](OC(=O)c3ccccc3)[C@]3(O)C[C@H](OC(=O)[C@H](O)[C@@H](NC(=O)c4ccccc4)c4cccs4)C(C)=C([C@@H](O)C(=O)[C@]12C)C3(C)C [Compound 4414]
IC50: < 1 nM

CCCC(=O)OC1CC2OCC2(OC(C)=O)C2C(OC(=O)c3ccccc3)C3(O)CC(OC(=O)C(O)C(NC(=O)OC(C)(C)C)c4ccsc4)C(C)=C(C(O)C(=O)C12C)C3(C)C (centres unmarked) [Compound 4446]
IC50: < 1 nM

CCCC(=O)O[C@H]1C[C@H]2OC[C@@]2(OC(C)=O)[C@H]2[C@H](OC(=O)c3ccccc3)[C@]3(O)C[C@H](OC(=O)[C@H](O)[C@@H](NC(=O)c4cccs4)c4cccs4)C(C)=C([C@@H](O)C(=O)[C@]12C)C3(C)C [Compound 4454]
IC50: < 1 nM

CCCC(=O)OC1CC2OCC2(OC(C)=O)C2C(OC(=O)c3ccccc3)C3(O)CC(OC(=O)C(O)C(NC(=O)OC(C)(C)C)c4ccco4)C(C)=C(C(O)C(=O)C12C)C3(C)C (centres unmarked) [Compound 4499]
IC50: < 1 nM

CCC(=O)OC1CC2OCC2(OC(C)=O)C2C(OC(=O)c3ccccc3)C3(O)CC(OC(=O)C(O)C(NC(=O)OCC(C)C)c4ccsc4)C(C)=C(C(O)C(=O)C12C)C3(C)C (centres unmarked) [Compound 4544]
IC50: < 10 nM

CCCC(=O)OC1CC2OCC2(OC(C)=O)C2C(OC(=O)c3ccccc3)C3(O)CC(OC(=O)C(O)C(NC(=O)OCC(C)C)c4ccsc4)C(C)=C(C(O)C(=O)C12C)C3(C)C (centres unmarked) [Compound 4600]
IC50: < 10 nM

CCCC(=O)OC1CC2OCC2(OC(C)=O)C2C(OC(=O)c3ccccc3)C3(O)CC(OC(=O)C(O)C(NC(=O)OCC(C)C)c4ccco4)C(C)=C(C(O)C(=O)C12C)C3(C)C (centres unmarked) [Compound 4616]
IC50: < 1 nM

CCC(=O)O[C@H]1C[C@H]2OC[C@@]2(OC(C)=O)[C@H]2[C@H](OC(=O)c3ccccc3)[C@]3(O)C[C@H](OC(=O)[C@H](O)[C@@H](NC(=O)OCC(C)C)c4ccoc4)C(C)=C([C@@H](O)C(=O)[C@]12C)C3(C)C [Compound 4787]
IC50: < 10 nM

CCCC(=O)O[C@H]1C[C@H]2OC[C@@]2(OC(C)=O)[C@H]2[C@H](OC(=O)c3ccccc3)[C@]3(O)C[C@H](OC(=O)[C@H](O)[C@@H](NC(=O)OCC(C)C)c4ccoc4)C(C)=C([C@@H](O)C(=O)[C@]12C)C3(C)C [Compound 4828]
IC50: < 10 nM

C/C=C/C(=O)N[C@@H](c1ccoc1)[C@@H](O)C(=O)O[C@H]1C[C@@]2(O)[C@@H](OC(=O)c3ccccc3)[C@@H]3[C@]4(OC(C)=O)CO[C@@H]4C[C@H](OC(=O)CC)[C@@]3(C)C(=O)[C@H](O)C(=C1C)C2(C)C [Compound 4898]
IC50: < 1 nM

C/C=C/C(=O)N[C@@H](c1ccoc1)[C@@H](O)C(=O)O[C@H]1C[C@@]2(O)[C@@H](OC(=O)c3ccccc3)[C@@H]3[C@]4(OC(C)=O)CO[C@@H]4C[C@H](OC(=O)CCC)[C@@]3(C)C(=O)[C@H](O)C(=C1C)C2(C)C [Compound 4939]
IC50: < 1 nM

CCC(=O)O[C@H]1C[C@H]2OC[C@@]2(OC(C)=O)[C@H]2[C@H](OC(=O)c3ccccc3)[C@]3(O)C[C@H](OC(=O)[C@H](O)[C@@H](NC(=O)OC(C)(C)C)C4CC4)C(C)=C([C@@H](O)C(=O)[C@]12C)C3(C)C [Compound 5070]
IC50: < 10 nM

CCCC(=O)O[C@H]1C[C@H]2OC[C@@]2(OC(C)=O)[C@H]2[C@H](OC(=O)c3ccccc3)[C@]3(O)C[C@H](OC(=O)[C@H](O)[C@@H](NC(=O)OC(C)(C)C)C4CC4)C(C)=C([C@@H](O)C(=O)[C@]12C)C3(C)C [Compound 5080]
IC50: < 1 nM

CCC(=O)O[C@H]1C[C@H]2OC[C@@]2(OC(C)=O)[C@H]2[C@H](OC(=O)c3ccccc3)[C@]3(O)C[C@H](OC(=O)[C@H](O)[C@H](C=C(C)C)NC(=O)OCC(C)C)C(C)=C([C@@H](O)C(=O)[C@]12C)C3(C)C [Compound 5121]
IC50: 21.1 nM

CCCC(=O)O[C@H]1C[C@H]2OC[C@@]2(OC(C)=O)[C@H]2[C@H](OC(=O)c3ccccc3)[C@]3(O)C[C@H](OC(=O)[C@H](O)[C@H](C=C(C)C)NC(=O)OCC(C)C)C(C)=C([C@@H](O)C(=O)[C@]12C)C3(C)C [Compound 5131]
IC50: < 10 nM

CCC(=O)O[C@H]1C[C@H]2OC[C@@]2(OC(C)=O)[C@H]2[C@H](OC(=O)c3ccccc3)[C@]3(O)C[C@H](OC(=O)[C@H](O)[C@@H](NC(=O)OCC(C)C)C4CC4)C(C)=C([C@@H](O)C(=O)[C@]12C)C3(C)C [Compound 5191]
IC50: < 10 nM

CCCC(=O)O[C@H]1C[C@H]2OC[C@@]2(OC(C)=O)[C@H]2[C@H](OC(=O)c3ccccc3)[C@]3(O)C[C@H](OC(=O)[C@H](O)[C@@H](NC(=O)OCC(C)C)C4CC4)C(C)=C([C@@H](O)C(=O)[C@]12C)C3(C)C [Compound 5202]
IC50: < 10 nM

CC(=O)O[C@@]12CO[C@@H]1C[C@H](OC(=O)C(C)C)[C@@]1(C)C(=O)[C@H](O)C3=C(C)[C@@H](OC(=O)[C@H](O)[C@@H](NC(=O)C(C)C)c4ccco4)C[C@@](O)([C@@H](OC(=O)c4ccccc4)[C@H]21)C3(C)C [Compound 6121]
IC50: < 10 nM

C/C=C/C(=O)N[C@@H](c1ccco1)[C@@H](O)C(=O)O[C@H]1C[C@@]2(O)[C@@H](OC(=O)c3ccccc3)[C@@H]3[C@]4(OC(C)=O)CO[C@@H]4C[C@H](OC(=O)C(C)C)[C@@]3(C)C(=O)[C@H](O)C(=C1C)C2(C)C [Compound 6202]
IC50: < 1 nM

CCC(=O)O[C@H]1C[C@H]2OC[C@@]2(OC(C)=O)[C@H]2[C@H](OC(=O)c3ccccc3)[C@]3(O)C[C@H](OC(=O)[C@H](O)[C@@H](NC(=O)OC(C)(C)CC)c4ccco4)C(C)=C([C@@H](O)C(=O)[C@]12C)C3(C)C [Compound 6212]
IC50: < 1 nM

CCC(C)(C)OC(=O)N[C@@H](c1ccco1)[C@@H](O)C(=O)O[C@H]1C[C@@]2(O)[C@@H](OC(=O)c3ccccc3)[C@@H]3[C@]4(OC(C)=O)CO[C@@H]4C[C@H](OC(=O)C(C)C)[C@@]3(C)C(=O)[C@H](O)C(=C1C)C2(C)C [Compound 6252]
IC50: < 1 nM

CCCC(=O)O[C@H]1C[C@H]2OC[C@@]2(OC(C)=O)[C@H]2[C@H](OC(=O)c3ccccc3)[C@]3(O)C[C@H](OC(=O)[C@H](O)[C@@H](NC(=O)OC(C)(C)CC)c4ccco4)C(C)=C([C@@H](O)C(=O)[C@]12C)C3(C)C [Compound 6272]
IC50: < 1 nM

CCC(C)(C)OC(=O)N[C@@H](c1ccco1)[C@@H](O)C(=O)O[C@H]1C[C@@]2(O)[C@@H](OC(=O)c3ccccc3)[C@@H]3[C@]4(OC(C)=O)CO[C@@H]4C[C@H](OC(=O)CC(C)C)[C@@]3(C)C(=O)[C@H](O)C(=C1C)C2(C)C [Compound 6282]
IC50: < 10 nM

CC(=O)O[C@@]12CO[C@@H]1C[C@H](OC(=O)C(C)C)[C@@]1(C)C(=O)[C@H](O)C3=C(C)[C@@H](OC(=O)[C@H](O)[C@@H](NC(=O)OC(C)(C)C)c4cccs4)C[C@@](O)([C@@H](OC(=O)c4ccccc4)[C@H]21)C3(C)C [Compound 6333]
IC50: < 1 nM

CCCCC(=O)O[C@H]1C[C@H]2OC[C@@]2(OC(C)=O)[C@H]2[C@H](OC(=O)c3ccccc3)[C@]3(O)C[C@H](OC(=O)[C@H](O)[C@@H](NC(=O)OC(C)(C)CC)c4ccco4)C(C)=C([C@@H](O)C(=O)[C@]12C)C3(C)C [Compound 6343]
IC50: < 10 nM

CCC(=O)O[C@H]1C[C@H]2OC[C@@]2(OC(C)=O)[C@H]2[C@H](OC(=O)c3ccccc3)[C@]3(O)C[C@H](OC(=O)[C@H](O)[C@@H](NC(=O)OC(C)(C)C)c4nccs4)C(C)=C([C@@H](O)C(=O)[C@]12C)C3(C)C [Compound 6363]
IC50: < 10 nM

C/C=C/C(=O)O[C@H]1C[C@H]2OC[C@@]2(OC(C)=O)[C@H]2[C@H](OC(=O)c3ccccc3)[C@]3(O)C[C@H](OC(=O)[C@H](O)[C@@H](NC(=O)OC(C)(C)C)c4cccs4)C(C)=C([C@@H](O)C(=O)[C@]12C)C3(C)C [Compound 6686]
IC50: < 1 nM
